Molecules are shown by their SMILES. Values joined by “and” are separate entries in the source; they are usually repeats but may differ in a detail not shown here. Equal entries are not always repeated.

The values below come from patent US20230123497A1, “NOVEL ANTIBACTERIAL HYDROGELS” (NewSouth Innovations Pty Limited, priority 2020, published 2023).

Holding throughout (assay type): physicochemical
Data set [1] is described as follows: Frequency sweep test (FST), rheometer. The settings on record: for G′: 1% w/v. Here is the method: The mechanical properties of anthranilamide-based cationic hydrogels were assessed using an Anton Paar MCR 302 rheometer with a 25 mm stainless parallel plate configuration.
(§1) Initially, 1 mL of hydrogels were prepared from short peptides 11-13 and 15-19 in glass vials at concentration of 1% w/v. These vials were warmed using a heat gun to transform the hydrogel to the solution phase. Subsequently, 560 μL of the resulting solutions were cast onto the rheometer plate. The other plate was lowered to the measuring position ([…]) and the hydrogel was allowed to stand for 3 hours for the gel to form. The FST was conducted at fixed strain of 0.1% and frequency ranging from 10 Hz to 0.01 Hz. Meanwhile, the strain sweep test (SST) was performed at a frequency of 1 Hz using 0.1% strain to 100% strain. The rheology data were shown as the average of three repeats for each data point.
(§2) The mechanical properties of hydrogels 4 (formed via addition of NaCl or GdL) before and after blue light irradiation were also assessed using an Anton Paar MCR 302 rheometer with a 25 mm stainless parallel plate configuration. Prior to the hydrogel formation, 560 μL of solution phase of short peptide 4 at 1% w/v were transferred onto a rheometer plate. Meanwhile, hydrogel 4, which had been exposed to blue light, was warmed using a heat gun, to provide its solution phase. Subsequently, 560 μL of this solution phase was cast onto the rheometer plate. The other plate was lowered to the measuring position ([…]) and the hydrogel was allowed to stand for 3 hours for the gel to form. The frequency sweep test (FST) was conducted at fixed strain of 0.1% and frequency ranging from 10 Hz to 0.01 Hz. Meanwhile, the SST was performed at a frequency of 1 Hz using 0.1% strain to 100% strain. In addition, the temperature sweep test was conducted to obtain transition glass (Tg) using fixed frequency of 1 Hz and fixed strain of 0.1% with temperature ramping from 25° C. to 90° C. The rheology data were shown as the average of three repeats for each data point.
In the FST, samples were measured over a range of oscillation frequencies (0.1-10 rad/s) at fixed strain, temperature, and oscillation amplitude. Higher frequencies simulate fast motion on a short time-scale, while low frequencies simulate slow motion on a long time-scale, or rest. All of the hydrogels made from the anthranilamide-based short cationic peptides, which passed the vial inversion test, were subjected to the FST using a rheometer to precisely assess their mechanical properties.

Data set [2] can be described thus: Hydrogel formation, vial inversion test (critical gel concentration). Details: key: VS: viscous solution; CG: clear gel. From the text: (§3) The simplest method to determine whether a suitable hydrogel has formed is to use the vial inversion test. Through visual inspection, a material can be categorised as a solution, viscous solution, partial gel, or solid-like gel. A stable hydrogel needs to be able to hold its weight and/or maintain its shape during this assessment.
(§4) The critical gel concentration (CGC) is defined as the minimum mass of a short peptide required to provide a self-supporting hydrogel per unit volume in the vial inversion test (measured as % w/v).
(§5) Pre-weighed samples of short peptide 4 were prepared in aluminium-covered glass vials and Milli-Q water and 2 equivalents of NaOH (1.0 M) were added to make up concentrations of 1% w/v. The resulting suspensions were vortexed for 5 minutes to provide clear yellow solutions with pH 11.
(§6) To create a high ionic strength environment, 1 equivalent of NaCl was added and the vial was left to stand without disturbance for 3 hours at room temperature. Meanwhile, as an attempt to form a hydrogel by lowering the pH, 2 equivalents of GdL were added to a high pH solution of 4 followed by gentle mixing. These vials were inverted and allowed to stand overnight to confirm the hydrogel formation.
(§7) The formation of hydrogel 4 via the solvent switch method was conducted by dissolving short peptide 4, in an aluminium covered glass vial, with either 50% methanol, ethanol, or dimethyl sulfoxide (DMSO). Respective amounts of Mili-Q water were added to make up concentrations of 1% w/v.
(§8) In addition, gelation time was defined as the time (hours) required for 1% w/v of short peptide 4 to form a hydrogel which can be turned upside down without collapsing.
(§9) Pre-weighed samples of short peptides 10a-17a, 18, and 19 were prepared in glass vials with 10 mm internal diameter, and Milli-Q water was added to make up concentrations of 1% w/v. The resulting suspensions of short peptides 13, 18, and 19 (as ammonium or guanidinium salts) were slowly warmed until all solid had completely dissolved. GdL (1.5 to 2.0 equivalents) was added to the suspension of short peptides 10a-17a, before heat was applied. To create a high ionic strength environment, 1-5 equivalents of NaCl was added to the viscous solution of 10a-17a to make the total volume up to 1 mL, followed by gentle mixing, and the vial was left to stand without disturbance for 3 hours at room temperature. Subsequently, these vials were inverted and allowed to stand overnight to confirm hydrogel formation.

Experiment in data set [3]: as above
Text: as §3, §4, §5, §6, §7, §8, §9

Data set [4] in a line: Atomic force microscopy (AFM) of fibers. Here is the method:
Hydrogels of NO-releasing short peptide 4 (1 drop), at high pH, low pH, and after irradiation, were cast onto a mica substrate. Hydrogels of cationic short peptides 11-13 and 15-19 were prepared at their CGC, 2× below, and 4× below CGC in glass vials. Prior to gelation, one drop of the cationic short peptide solutions was cast onto a mica substrate. Using a glass slide, each droplet was carefully spread and was left to dry overnight before imaging. Imaging was performed using a Bruker Multimode 8 Atomic Force Microscope in Scanasyst Air (PeakForce Tappings) mode, which is based on tapping mode AFM. To prevent damage of soft samples, the imaging parameters were constantly optimized through the force curves that were collected. Bruker Scanasyst-Air probes were used, with a spring constant of 0.4-0.8 N·m^−1 and a tip radius of 2 nm.
To gain some insight on the mechanism of antibacterial action, the released solutions from hydrogel made of primary ammonium 11 were directly cast onto a mica substrate. […] After gently spreading using a glass slide and left to dry overnight, these samples were imaged using a similar manner as describe above.

Data set [5] can be described thus: Strain sweep test (SST), linear viscoelastic region. Here is the method:
as §1, §2
To observe the structural decay in anthranilamide-based cationic hydrogels, the SST was performed by imposing a non-linear strain. SST provides information about the viscoelastic properties of a hydrogel through determination of its linear viscoelastic region (LVER). […] Here, the LVER reported for each hydrogel represents the deviation of storage modulus (G′) from linearity, known as yield point (γy). Yield points have been reported to reflect a point where the rigidity of a hydrogel starts to weaken.

Setting [6] is: hydrogels 11-13 at 1% w/v, FST fixed strain 0.1%.

On to `NCCCNC(=O)[C@H](Cc1ccccc1)NC(=O)c1ccccc1NC(=O)c1ccc2ccccc2c1` [Compound 11], for which the “G′/G″ ratio” value in data set [1] (hydrogels 11-13 at 1% w/v) was determined as 11.9. Moreover, in data set [1] (setting [6]), the “G′ (modulus storage)” value stood at 0.83 kPa and the “G″ (modulus loss)” value is given as 0.07 kPa. The “Remarks (gel state)” value in data set [2] (cationic peptides 10-14, vial inversion test) was “CG”. Further, in data set [3] (cationic peptides 10-14, triggers GdL, heat and NaCl (13: heat and NaCl)), the CGC stood at 0.1 % w/v. In addition, in data set [3] (hydrogels of cationic peptides 10-14), the pH was 5.5. For the same compound, the fiber bundle diameter in data set [4] (hydrogel after addition of salt, 4× below CGC) is 115±5 nm. Further, the “diameter of fibers in the released solution” value in data set [4] (solution released from hydrogel 11, below CGC) is reported as 47±4.9 nm. Besides, in data set [4] (viscous solution without salt, 0.05% w/v), the fiber diameter is listed as 74±6 nm. For the same compound, the “LVER (linear viscoelastic region)” value in data set [5] (hydrogels at 1% w/v, SST at 1 Hz, 0.1% to 100% strain) is given as 0.98 ± 0.05%.

On to `O=C(Nc1ccccc1C(=O)N[C@@H](Cc1ccccc1)C(=O)N[C@@H](Cc1ccccc1)C(=O)O)c1ccc([N+](=O)[O-])c(C(F)(F)F)c1` [Compound 4, (2-(4-Nitro-3-(trifluoromethyl)benzamido)benzoyl)-L-phenylalanyl-L-phenylalanine], for which the “G′/G″” value in data set [1] (hydrogel 4 at pH 5.5-6) was 17; in data set [1] (hydrogel 4 at pH 11) it was 12. Moreover, the “G″” value in data set [1] (hydrogel 4 at pH 5.5-6) turned out to be 0.6 kPa; in data set [1] (hydrogel 4 at pH 11) it was 1.1 kPa. In addition, the “G′” value in data set [1] (hydrogel 4 at pH 5.5-6 (low pH, GdL), before irradiation) amounted to 10.2 kPa; in data set [1] (hydrogel 4 at pH 11 (high pH, NaCl)), 13.2 kPa. The “G′ after irradiation” value in data set [1] (hydrogel 4 irradiated (λ=440-450 nm) for 2 hours, after NO release) amounted to 4.9 kPa. The entries for the “Remarks (gel state)” value in data set [2] (trigger NaOH), in data set [2] (trigger NaOH + GdL) and in data set [2] (trigger NaOH + NaCl) were “VS”, “CG” and “CG”, respectively. The “Time (gelation time)” value in data set [3] (solvent switch, DMSO 50 % v/v, 1% w/v) is given as “Immed”; in data set [3] (solvent switch, EtOH 5 % v/v), “Immed”; in data set [3] (solvent switch, EtOH 50 % v/v, 1% w/v) it was “Immed”; in data set [3] (solvent switch, MeOH 50 % v/v, 1% w/v), “Immed”. Besides, the “CGC (critical gel concentration)” value in data set [3] (solvent switch, co-solvent DMSO 50 % v/v) was 0.4 % w/v; in data set [3] (solvent switch, co-solvent EtOH 50 % v/v), 0.4 % w/v; in data set [3] (solvent switch, co-solvent MeOH 50 % v/v) it was 0.4 % w/v; in data set [3] (trigger NaOH + GdL (pH switch)), 0.2 % w/v; in data set [3] (trigger NaOH + NaCl), 0.2 % w/v. The “Time (self-assembly/gelation)” value in data set [3] (trigger NaOH) is reported as 48 h; in data set [3] (trigger NaOH + GdL), 1 h; in data set [3] (trigger NaOH + NaCl), 3 h. Further, the pH is 11 in data set [3] (trigger NaOH); 5.5 and 5.2 in data set [3] (trigger NaOH + GdL); 11 in data set [3] (trigger NaOH + NaCl). Further, in data set [4] (hydrogel 4, before irradiation), the “diameter of larger (bundled) fibers” value was determined as 104±4 nm. Further, the figures for the fiber diameter in data set [4] (hydrogel 4 formed at high pH) and in data set [4] (hydrogel 4 formed at low pH) were 40±3 nm and 43±5 nm, respectively. In addition, the “fiber bundle diameter after irradiation” value in data set [4] (hydrogel 4 irradiated for 2 hours (blue light)) was determined as 68±6 nm. Moreover, the “% strain (LVER)” value is on record as 1.4% in data set [5] (hydrogel 4 at pH 5.5-6) and 1.2% in data set [5] (hydrogel 4 at pH 11).
